{"source": "ChEMBL document CHEMBL1201862", "about": "“PubChem BioAssay data set” (2004)", "experiment_in_all_cases": "NCI anticancer screen, dose series, 48 h", "key": {"[1]": {"test_system": "K562"}, "[2]": {"test_system": "COLO 205"}, "[3]": {"test_system": "TK-10"}, "[4]": {"test_system": "OVCAR-5"}, "[5]": {"test_system": "NCI-H522"}, "[6]": {"test_system": "MDA-N"}, "[7]": {"test_system": "SF-268"}, "[8]": {"test_system": "SR"}, "[9]": {"test_system": "SN12C"}, "[10]": {"test_system": "UO-31"}, "[11]": {"test_system": "HCC 2998"}, "[12]": {"test_system": "HCT-15"}, "[13]": {"test_system": "EKVX"}, "[14]": {"test_system": "OVCAR-3"}, "[15]": {"test_system": "SK-MEL-5"}, "[16]": {"test_system": "CAKI-1"}, "[17]": {"test_system": "HCT-116"}, "[18]": {"test_system": "U-251"}, "[19]": {"test_system": "A549"}, "[20]": {"test_system": "DU-145"}, "[21]": {"test_system": "OVCAR-4"}, "[22]": {"test_system": "ACHN"}, "[23]": {"test_system": "A498"}, "[24]": {"test_system": "OVCAR-8"}, "[25]": {"test_system": "786-0"}, "[26]": {"test_system": "IGROV-1"}, "[27]": {"test_system": "Hs-578T"}, "[28]": {"test_system": "SF-295"}, "[29]": {"test_system": "MDA-MB-231"}, "[30]": {"test_system": "HT-29"}, "[31]": {"test_system": "T47D"}, "[32]": {"test_system": "NCI-H23"}, "[33]": {"test_system": "NCI-H226"}, "[34]": {"test_system": "NCI-H460"}, "[35]": {"test_system": "SK-MEL-2"}, "[36]": {"test_system": "BT-549"}, "[37]": {"test_system": "LOX IMVI"}, "[38]": {"test_system": "SW-620"}, "[39]": {"test_system": "HL-60"}, "[40]": {"test_system": "SNB-19"}, "[41]": {"test_system": "MDA-MB-435"}, "[42]": {"test_system": "MOLT-4"}, "[43]": {"test_system": "UACC-62"}, "[44]": {"test_system": "SK-MEL-28"}, "[45]": {"test_system": "M14"}, "[46]": {"test_system": "RPMI-8226"}, "[47]": {"test_system": "RXF 393"}, "[48]": {"test_system": "MCF7"}, "[49]": {"test_system": "CCRF-CEM"}, "[50]": {"test_system": "KM12"}, "[51]": {"test_system": "UACC-257"}, "[52]": {"test_system": "NCI/ADR-RES"}, "[53]": {"test_system": "HOP-62"}, "[54]": {"test_system": "SK-OV-3"}, "[55]": {"test_system": "PC-3"}, "[56]": {"test_system": "SF-539"}, "[57]": {"test_system": "SNB-75"}}, "note": "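Assay format: 96-well plates, 48-hour exposure. GI50: concentration for 50% inhibition of growth.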 Activity calls are given as the source filed them. Cut-off read from the data, not from the text of the source: active = GI50 up to about 1.1 µM and inactive = higher.", "data": [{"smiles": "Clc1ccc(-c2ccc(-c3nnc(COc4ccc(OCc5nnc(-c6ccc(-c7ccc(Cl)cc7Cl)o6)o5)c(Cl)c4)o3)o2)c(Cl)c1", "values": [{"measurement": "GI50", "setting": "[1]", "value": "> 100 µM (inactive)"}, {"measurement": "GI50", "setting": "[2]", "value": "> 100 µM (inactive)"}, {"measurement": "GI50", "setting": "[3]", "value": "84.5 µM (inactive)"}, {"measurement": "GI50", "setting": "[4]", "value": "> 100 µM (inactive)"}, {"measurement": "GI50", "setting": "[5]", "value": "> 100 µM (inactive)"}, {"measurement": "GI50", "setting": "[6]", "value": "> 100 µM (inactive)"}, {"measurement": "GI50", "setting": "[7]", "value": "56.1 µM (inactive)"}, {"measurement": "GI50", "setting": "[8]", "value": "28.8 µM (inactive)"}, {"measurement": "GI50", "setting": "[9]", "value": "> 100 µM (inactive)"}, {"measurement": "GI50", "setting": "[10]", "value": "> 100 µM (inactive)"}, {"measurement": "GI50", "setting": "[11]", "value": "> 100 µM (inactive)"}, {"measurement": "GI50", "setting": "[12]", "value": "> 100", "unit": "µM"}, {"measurement": "GI50", "setting": "[13]", "value": "> 100 µM (inactive)"}, {"measurement": "GI50", "setting": "[14]", "value": "> 100 µM (inactive)"}, {"measurement": "GI50", "setting": "[15]", "value": "> 100 µM (inactive)"}, {"measurement": "GI50", "setting": "[16]", "value": "> 100 µM (inactive)"}, {"measurement": "GI50", "setting": "[17]", "value": "> 100 µM (inactive)"}, {"measurement": "GI50", "setting": "[18]", "value": "40 µM (inactive)"}, {"measurement": "GI50", "setting": "[19]", "value": "> 100 µM (inactive)"}, {"measurement": "GI50", "setting": "[20]", "value": "> 100 µM (inactive)"}, {"measurement": "GI50", "setting": "[21]", "value": "> 100 µM (inactive)"}, {"measurement": "GI50", "setting": "[22]", "value": "> 100 µM (inactive)"}, {"measurement": "GI50", "setting": "[23]", "value": "> 100 µM (inactive)"}, {"measurement": "GI50", "setting": "[24]", "value": "45.7 µM (inactive)"}, {"measurement": "GI50", "setting": "[25]", "value": "> 100 µM (inactive)"}, {"measurement": "GI50", "setting": "[26]", "value": "> 100 µM (inactive)"}, {"measurement": "GI50", "setting": "[27]", "value": "83 µM (inactive)"}, {"measurement": "GI50", "setting": "[28]", "value": "> 100 µM (inactive)"}, {"measurement": "GI50", "setting": "[29]", "value": "> 100 µM (inactive)"}, {"measurement": "GI50", "setting": "[30]", "value": "> 100 µM (inactive)"}, {"measurement": "GI50", "setting": "[31]", "value": "> 100 µM (inactive)"}, {"measurement": "GI50", "setting": "[32]", "value": "> 100 µM (inactive)"}, {"measurement": "GI50", "setting": "[33]", "value": "> 100 µM (inactive)"}, {"measurement": "GI50", "setting": "[34]", "value": "> 100 µM (inactive)"}, {"measurement": "GI50", "setting": "[35]", "value": "25.3 µM (inactive)"}, {"measurement": "GI50", "setting": "[36]", "value": "> 100 µM (inactive)"}, {"measurement": "GI50", "setting": "[37]", "value": "> 100 µM (inactive)"}, {"measurement": "GI50", "setting": "[38]", "value": "> 100 µM (inactive)"}, {"measurement": "GI50", "setting": "[39]", "value": "> 100 µM (inactive)"}, {"measurement": "GI50", "setting": "[40]", "value": "61.7 µM (inactive)"}, {"measurement": "GI50", "setting": "[41]", "value": "> 100 µM (inactive)"}, {"measurement": "GI50", "setting": "[42]", "value": "28.4 µM (inactive)"}, {"measurement": "GI50", "setting": "[43]", "value": "> 100 µM (inactive)"}, {"measurement": "GI50", "setting": "[44]", "value": "> 100 µM (inactive)"}, {"measurement": "GI50", "setting": "[45]", "value": "> 100 µM (inactive)"}, {"measurement": "GI50", "setting": "[46]", "value": "> 100 µM (inactive)"}, {"measurement": "GI50", "setting": "[47]", "value": "16.2 µM (inactive)"}, {"measurement": "GI50", "setting": "[48]", "value": "> 100 µM (inactive)"}, {"measurement": "GI50", "setting": "[49]", "value": "32.4 µM (inactive)"}, {"measurement": "GI50", "setting": "[50]", "value": "> 100 µM (inactive)"}, {"measurement": "GI50", "setting": "[51]", "value": "> 100 µM (inactive)"}, {"measurement": "GI50", "setting": "[52]", "value": "> 100 µM (inactive)"}, {"measurement": "GI50", "setting": "[53]", "value": "36.6 µM (inactive)"}]}, {"smiles": "CCCCCCCCCc1nn2c(Cc3ccccc3)nnc2s1", "values": [{"measurement": "GI50", "setting": "[1]", "value": "32.5 µM (inactive)"}, {"measurement": "GI50", "setting": "[2]", "value": "17.5 µM (inactive)"}, {"measurement": "GI50", "setting": "[3]", "value": "24.6 µM (inactive)"}, {"measurement": "GI50", "setting": "[4]", "value": "14.4 µM (inactive)"}, {"measurement": "GI50", "setting": "[5]", "value": "14 µM (inactive)"}, {"measurement": "GI50", "setting": "[6]", "value": "20.6 µM (inactive)"}, {"measurement": "GI50", "setting": "[7]", "value": "16.7 µM (inactive)"}, {"measurement": "GI50", "setting": "[9]", "value": "18.2 µM (inactive)"}, {"measurement": "GI50", "setting": "[10]", "value": "13.1 µM (inactive)"}, {"measurement": "GI50", "setting": "[12]", "value": 19.5, "unit": "µM"}, {"measurement": "GI50", "setting": "[54]", "value": "25.5 µM (inactive)"}, {"measurement": "GI50", "setting": "[13]", "value": "15.5 µM (inactive)"}, {"measurement": "GI50", "setting": "[14]", "value": "17.2 µM (inactive)"}, {"measurement": "GI50", "setting": "[15]", "value": "15.9 µM (inactive)"}, {"measurement": "GI50", "setting": "[16]", "value": "30.3 µM (inactive)"}, {"measurement": "GI50", "setting": "[17]", "value": "18 µM (inactive)"}, {"measurement": "GI50", "setting": "[55]", "value": "22.1 µM (inactive)"}, {"measurement": "GI50", "setting": "[18]", "value": "18.7 µM (inactive)"}, {"measurement": "GI50", "setting": "[19]", "value": "20.5 µM (inactive)"}, {"measurement": "GI50", "setting": "[20]", "value": "22.4 µM (inactive)"}, {"measurement": "GI50", "setting": "[21]", "value": "20 µM (inactive)"}, {"measurement": "GI50", "setting": "[22]", "value": "20 µM (inactive)"}, {"measurement": "GI50", "setting": "[23]", "value": "18.2 µM (inactive)"}, {"measurement": "GI50", "setting": "[24]", "value": "15.3 µM (inactive)"}, {"measurement": "GI50", "setting": "[25]", "value": "19.2 µM (inactive)"}, {"measurement": "GI50", "setting": "[27]", "value": "20.8 µM (inactive)"}, {"measurement": "GI50", "setting": "[28]", "value": "18.9 µM (inactive)"}, {"measurement": "GI50", "setting": "[29]", "value": "24.5 µM (inactive)"}, {"measurement": "GI50", "setting": "[31]", "value": "24.7 µM (inactive)"}, {"measurement": "GI50", "setting": "[32]", "value": "19.2 µM (inactive)"}, {"measurement": "GI50", "setting": "[56]", "value": "18.1 µM (inactive)"}, {"measurement": "GI50", "setting": "[34]", "value": "18.5 µM (inactive)"}, {"measurement": "GI50", "setting": "[35]", "value": "19.8 µM (inactive)"}, {"measurement": "GI50", "setting": "[36]", "value": "18.8 µM (inactive)"}, {"measurement": "GI50", "setting": "[38]", "value": "17.6 µM (inactive)"}, {"measurement": "GI50", "setting": "[57]", "value": "26.4 µM (inactive)"}, {"measurement": "GI50", "setting": "[40]", "value": "18.2 µM (inactive)"}, {"measurement": "GI50", "setting": "[41]", "value": "26.3 µM (inactive)"}, {"measurement": "GI50", "setting": "[42]", "value": "17.3 µM (inactive)"}, {"measurement": "GI50", "setting": "[43]", "value": "18 µM (inactive)"}, {"measurement": "GI50", "setting": "[44]", "value": "17.7 µM (inactive)"}, {"measurement": "GI50", "setting": "[45]", "value": "20.8 µM (inactive)"}, {"measurement": "GI50", "setting": "[46]", "value": "23.6 µM (inactive)"}, {"measurement": "GI50", "setting": "[47]", "value": "18.5 µM (inactive)"}, {"measurement": "GI50", "setting": "[48]", "value": "41.1 µM (inactive)"}, {"measurement": "GI50", "setting": "[50]", "value": "25 µM (inactive)"}, {"measurement": "GI50", "setting": "[51]", "value": "23.5 µM (inactive)"}, {"measurement": "GI50", "setting": "[52]", "value": "16.7 µM (inactive)"}, {"measurement": "GI50", "setting": "[53]", "value": "19.9 µM (inactive)"}]}]}
